Experimental data from paper PMC12782889, “A GmNRF5a–GmCERK1–GmCAK1 module mediates chitin/chitosan‐triggered immune response in soybean” (Journal of Integrative Plant Biology, 2025).

Key:
GmCERK1^ECDI137R = assay: MST binding to GmCERK1^ECD mutant I137R; parameters: species or system soybean (Glycine max); conditions: ligand dp6
From the text: (§1) The ectodomains of GmCERK1, GmNFR5a, and mutants were cloned into the yeast expression vector pPICZαA (Thermo Fisher Scientific, Shanghai, China) through the double digestion and ligation using the restriction endonuclease EcoRI/XbaI (NEB, Suzhou, China) and T4 ligase. Then, the linearized recombinant plasmid pPICZαA‐GmCERK1 and pPICZαA‐GmNFR5a were transformed into P. pastoris X‐33. The positive colonies were selected on YPDS medium (1% w/v yeast extract, 2% w/v peptone, 2% w/v glucose, 2% w/v agar, 100 μg/mL antibiotic Zeocin (Thermo Fisher Scientific)) plates and verified by direct DNA sequencing. Protein expression was carried out initially in BMGY media (100 mM potassium phosphate pH 6.0, 1.34% w/v YNB, 4 × 10^−5% w/v biotin, 1% v/v glycerol) at 28°C with shaking (180 rpm) until the OD600 reached 2.0–6.0. The cell pellet was transferred into BMMY medium (100 mM potassium phosphate pH 6.0, 1.34% w/v YNB, 4 × 10^−5% w/v biotin, 0.5% v/v methanol) and continuously supplied with the addition of 0.5% (v/v) methanol every day for 5 d. […]
(§2) GmCERK1^ECD, GmNFR5a^ECD, and all mutants were labeled with a fluorescent dye using the Monolith Protein Labeling Kit RED‐NHS second Generation (MO‐L011). […] The data were analyzed and fitted by plotting ligand concentrations against bound fractions using the MO.Affinity Analysis v3.0.5 software. […]

UGT76G1 = target: T1, UGT76G1 (Stevia rebaudiana, UniProt Q6VAB4); assay: MST binding to UGT76G1 (negative control protein)
T1 construct: made in house
T1 sequence (Q6VAB4 1-458): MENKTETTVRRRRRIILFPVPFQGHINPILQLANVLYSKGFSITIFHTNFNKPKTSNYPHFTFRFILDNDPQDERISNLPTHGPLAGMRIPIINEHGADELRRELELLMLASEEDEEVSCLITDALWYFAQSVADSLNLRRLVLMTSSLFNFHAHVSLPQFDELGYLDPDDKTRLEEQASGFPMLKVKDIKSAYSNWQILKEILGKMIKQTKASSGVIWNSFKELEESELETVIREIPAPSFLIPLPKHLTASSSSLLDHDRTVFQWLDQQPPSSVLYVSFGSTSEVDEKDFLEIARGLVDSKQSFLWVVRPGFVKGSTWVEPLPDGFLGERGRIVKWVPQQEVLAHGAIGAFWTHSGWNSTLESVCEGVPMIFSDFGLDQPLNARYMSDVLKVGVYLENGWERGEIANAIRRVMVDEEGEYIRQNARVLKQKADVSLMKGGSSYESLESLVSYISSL

GmNFR5a^ECDL153R = assay: MST binding to GmNFR5a^ECD mutant L153R; parameters: species or system soybean (Glycine max); conditions: ligand dp6
From the text: as §1, §2

GmCERK1^ECDY109R = assay: MST binding to GmCERK1^ECD mutant Y109R; parameters: species or system soybean (Glycine max); conditions: ligand dp6
From the text: as §1, §2

Phytophthora sojae P6497 = assay: P. sojae infection of pretreated soybean hairy roots (GFP control); assay type: in vivo, Phytophthora sojae on soybean (Glycine max); conditions: control hairy roots expressing GFP; 50 mg/L soak 12 h; 48 hpi; vs dH2O; P < 0.0001
From the text: Soybean (cultivar Williams) seeds were surface sterilized and germinated as previously described ([Kereszt et al., 2007]). Soybean cotyledons were removed from […] seedlings grown in vermiculite. Cotyledons were harvested at Day 7 by gently twisting them off the hypocotyl. Only unblemished cotyledons were employed for all protocols. Individual cotyledons were surface sterilized by wiping with an alcohol swab soaked in 70% ethanol. The alcohol swab was wrung out slightly before use, so that it was wet but not dripping. […] Hairy roots were monitored for green fluorescence production over a period of 4 weeks. For silencing in hairy roots, the transcript levels of the targeted gene and its closest paralogs were measured in fluorescent green hairy roots using qRT‐PCR to assess silencing efficiency.
For soybean etiolated hypocotyls inoculation assays, etiolated hypocotyls of soybean (cultivar Williams) were inoculated with P. sojae zoospore suspensions (100 zoospores). […] For soybean hairy‐root inoculation assays, transgenic hairy roots were soaked in CTOS/CSOS (50 mg/L) or mock (dH2O) for 12 h and then were infected with red fluorescent protein (RFP)‐labeled P. sojae strain P6497, and fluorescence was visualized in the infected area of soybean hairy root and the biomass of P. sojae was determined by qRT‐PCR at 48 hpi.

SMILES | interaction with GmCERK1^ECDI137R (GmCERK1^ECDI137R) | binding to UGT76G1 (UGT76G1) | interaction with GmNFR5a^ECDL153R (GmNFR5a^ECDL153R) | interaction with GmCERK1^ECDY109R (GmCERK1^ECDY109R) | soybean defense against P. sojae (pathogen biomass) (Phytophthora sojae P6497)
N[C@H]1[C@H](O[C@H]2[C@H](O)[C@@H](N)[C@H](O[C@H]3[C@H](O)[C@@H](N)[C@H](O[C@H]4[C@H](O)[C@@H](N)[C@H](O[C@H]5[C@H](O)[C@@H](N)[C@H](O[C@H]6[C@H](O)[C@@H](N)C(O)O[C@@H]6CO)O[C@@H]5CO)O[C@@H]4CO)O[C@@H]3CO)O[C@@H]2CO)O[C@H](CO)[C@@H](O)[C@@H]1O (stereo partly drawn) [CSOS (dp6), chitosan oligosaccharide] | cannot interact | cannot bind | cannot interact | cannot interact | –
CC(=O)N[C@H]1[C@H](O[C@H]2[C@H](O)[C@@H](NC(C)=O)[C@H](O[C@H]3[C@H](O)[C@@H](NC(C)=O)C(O)O[C@@H]3CO)O[C@@H]2CO)O[C@H](CO)[C@@H](O[C@@H]2O[C@H](CO)[C@@H](O[C@@H]3O[C@H](CO)[C@@H](O[C@@H]4O[C@H](CO)[C@@H](O)[C@H](O)[C@H]4NC(C)=O)[C@H](O)[C@H]3NC(C)=O)[C@H](O)[C@H]2NC(C)=O)[C@@H]1O (stereo partly drawn) [CTOS (dp6), chitin oligosaccharide] | – | cannot bind | – | – | significantly bolstered
